{"source": "patent US8278469B2", "about": "“17-hydroxy-17-pentafluoroethyl-estra-4,9(10)-dien-11-aryl derivatives, method of production thereof and use thereof for the treatment of diseases” (Bayer Pharma Aktiengesellschaft, priority 2009, dated 2012)", "key": {"[1]": {"biological_target": "T1, human progesterone receptor A (PR-A) (Homo sapiens, UniProt P06401)", "T1 construct": "expressed in transfected cells; host or cells: SK-N-MC human neuroblastoma cells, stably transfected with pRChPR-A-neo and pMMTV-LUC", "T1 sequence (P06401 1-769 isoform P06401-2)": "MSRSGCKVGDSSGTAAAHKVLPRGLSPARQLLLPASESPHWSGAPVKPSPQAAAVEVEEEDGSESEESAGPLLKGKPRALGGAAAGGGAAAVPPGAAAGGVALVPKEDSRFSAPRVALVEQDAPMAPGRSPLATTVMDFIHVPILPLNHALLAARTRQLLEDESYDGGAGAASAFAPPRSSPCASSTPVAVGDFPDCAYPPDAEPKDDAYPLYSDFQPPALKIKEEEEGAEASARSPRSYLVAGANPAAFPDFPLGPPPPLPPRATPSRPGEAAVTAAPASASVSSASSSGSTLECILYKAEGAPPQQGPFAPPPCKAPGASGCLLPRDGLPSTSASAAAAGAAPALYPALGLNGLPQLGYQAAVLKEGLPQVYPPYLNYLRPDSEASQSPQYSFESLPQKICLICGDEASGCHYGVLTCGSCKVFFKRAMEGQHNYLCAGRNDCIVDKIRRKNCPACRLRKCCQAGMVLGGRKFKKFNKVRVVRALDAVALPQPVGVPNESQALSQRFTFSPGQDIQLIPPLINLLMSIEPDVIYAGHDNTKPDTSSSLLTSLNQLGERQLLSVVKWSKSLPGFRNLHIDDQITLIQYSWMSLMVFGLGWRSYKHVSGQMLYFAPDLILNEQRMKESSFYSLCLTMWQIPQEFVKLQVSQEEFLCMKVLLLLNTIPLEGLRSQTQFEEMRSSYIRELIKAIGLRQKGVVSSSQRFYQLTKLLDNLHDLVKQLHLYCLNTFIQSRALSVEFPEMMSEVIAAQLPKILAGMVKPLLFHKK", "assay": "Progesterone receptor-antagonistic action in stable transfectants of SK-N-MC cells with human PR-A and MTV-LUC reporter", "assay_type": "cell-based", "experimental": "Progesterone Receptor-Antagonistic Action in Stable Transfectants of Human Neuroblastoma Cells (SK-N-MC Cells) with the Human Progesterone A or Progesterone B Receptor and an MTV-LUC Reporter Construct\nSK-N-MC cells (human neuroblastoma cells), which have been stably transfected with plasmids, which express the human progesterone receptor B (pRChPR-B-neo) or the human progesterone receptor A (pRChPR-A-neo) and a reporter construct (pMMTV-LUC), were incubated for 24 hours either in the absence (negative control) or in the presence of increasing amounts of the respective test compound (0.01 nmol/l, 0.1 nmol/l, 1 nmol/l, 10 nmol/l, 100 nmol/l and 1 μmol/l), in order to determine the agonistic efficacy. As positive control of reporter gene induction, the cells were treated with the synthetic gestagen promegestone (0.01 nmol/l, 0.1 nmol/l, 1 nmol/l, 10 nmol/l, 100 nmol/l and 1 μmol/l). For determination of the antagonistic activity, the cells were treated with 0.1 nmol/l promegestone and additionally with increasing amounts of the respective test compound (0.01 nmol/l, 0.1 nmol/l, 1 nmol/l, 10 nmol/l, 100 nmol/l and 1 μmol/l). The activity of the LUC reporter gene (LUC=luciferase) was determined in the cell lysates and was measured as RLU (relative light units). All measured values are given as percentage efficacy and as EC50 or IC50 concentrations.\n11β-(4-Acetylphenyl)-20,20,21,21,21-pentafluoro-17-hydroxy-19-nor-17α-pregna-4,9-dien-3-one and 20,20,21,21,21-pentafluoro-17-hydroxy-11β-[4-(hydroxyacetyl)phenyl]-19-nor-17α-pregna-4,9-dien-3-one, very potent and therefore preferred examples from WO98/34947 and WO2008/058767, were tested as comparative compounds along with the test compound."}, "[2]": {"assay": "Metabolic stability in human liver microsomes (HLM)", "assay_type": "in vitro ADME", "conditions": "HLM 0.5 mg/ml protein, 1 μM, 37° C., pH 7.4; well-stirred model, phase I reactions", "experimental": "Metabolic Stability of (11β,17β)-17-hydroxy-11-[4-(methylsulphonyl)phenyl]-17-(pentafluoroethyl)estra-4,9-dien-3-one and (11β,17β)-17-hydroxy-11-[4′-(methylsulphonyl)-biphenyl-4-4-yl]-17-(pentafluoroethyl)estra-4,9-dien-3-one in Human Liver Microsomes (HLM)\nIsolated human liver microsomes (HLM) were used for assessing the metabolic stability of compounds of general formula I.\nIncubations were carried out with 2.4 ml of HLM solution (0.5 mg/ml protein content), 30 μl of the test compound (final concentration 1 μM) and 0.6 ml of the cofactor mixture (=NADPH-generating system of 3 IU glucose-6-phosphate dehydrogenase, 14.6 mg glucose-6-phosphate, 1.2 mg NADP) at 37° C. in 100 mM phosphate buffer at pH 7.4. Samples are taken at 6 time points (2-60 min), precipitated with an equal volume of methanol and the recovery of the test substances used in the supernatant is determined by LC-MS/MS analysis. The intrinsic clearance of the substance in the liver microsome preparation can be calculated from the half-life found for the breakdown of the substance. Based on this, together with various physiological characteristics according to the well-stirred model, it is then possible to predict a (metabolic) in vivo clearance with respect to phase I reactions. […]"}, "[3]": {"tested_on": "cardiovascular system", "assay": "Action on the cardiovascular system (incl. ECG) of anaesthetized beagle dogs", "assay_type": "in vivo", "conditions": "anaesthetized female beagle dogs, i.v. 0.1; 0.33 and 1 mg/kg, in comparison with the control", "experimental": "Investigation of the Action on the Cardiovascular System (Incl. ECG) of Anaesthetized Beagle Dogs\n(11β,17β)-17-Hydroxy-11-[4-(methylsulphonyl)phenyl]-17-(pentafluoroethyl)estra-4,9-dien-3-one, dissolved in a mixture of PEG 400 and HP-β-CD (60% PEG 400, 40% HP-β-CD 30%), was administered intravenously to anaesthetized female beagle dogs. The body weight of the dogs was >9 kg. 3 dogs were treated per group and additionally 3 dogs in the control group. 0.1; 0.33 and 1 mg/kg of the substance was administered in 3 consecutive infusions, in each case over a period of 30 minutes. The maximum amount of vehicle was 0.4 ml per kg for 30 minutes. Blood samples were taken from the animals at various time points. The highest plasma level (average for all 3 animals) was 1650 ng/ml at the end of the third infusion."}, "[4]": {"tested_on": "rodents and non-rodents", "conditions": "in vivo"}}, "data": [{"smiles": "C[C@]12C[C@H](c3ccc(S(C)(=O)=O)cc3)C3=C4CCC(=O)C=C4CC[C@H]3[C@@H]1CC[C@@]2(O)C(F)(F)C(F)(F)F", "note": "[Example 4, (11β,17β)-17-Hydroxy-11-[4-(methylsulphonyl)phenyl]-17-(pentafluoroethyl)estra-4,9-dien-3-one]", "values": [{"measurement": "Emax", "setting": "[1]; SK-N-MC, 24 h, read-out: Progesterone receptor A (PR-A) Efficacy", "value": 100, "unit": "%"}, {"measurement": "IC50", "setting": "[1]; antagonistic activity against 0.1 nmol/l promegestone, SK-N-MC cells, 24 hours, LUC reporter, read-out: Progesterone receptor A (PR-A) Potency IC50", "value": 0.096, "unit": "nM"}, {"measurement": "(metabolic) in vivo clearance in humans predicted", "setting": "[2]", "value": 1.7, "unit": "mL/min/kg"}, {"measurement": "Effects on the cardiovascular system (pulmonary artery pressure, systemic arterial blood pressure, heart rate, ECG)", "setting": "[3]", "value": "no biologically relevant effects on the cardiovascular system"}, {"measurement": "Safety profile (in acute and chronic tests)", "setting": "[4]", "value": "especially favourable safety profile"}]}]}
